According to US10214542B2, “Modified macrocyclic compounds” (BAYER PHARMA AKTIENGESELLSCHAFT, priority 2015, dated 2019):
pIC50: −log10 of the molar value.

Columns and labels:
CDK9/CycT1 = target: T1, CDK9/CycT1 (Homo sapiens, UniProt P50750); assay: CDK9/CycT1 kinase assay (TR-FRET, Method 1a); assay type: biochemical; conditions: 10 μM ATP; for pIC50: Method 1a; for Selectivity CDK9 over CDK2: IC50 (CDK2)/IC50 (CDK9): Methods 1a and 2a
T1 construct: Recombinant full-length His-tagged human CDK9 and CycT1; His; purchased Invitrogen PV4131; host or cells: insect cells
Source text: 1a. CDK9/CycT1 Kinase Assay:
CDK9/CycT1-inhibitory activity of compounds of the present invention was quantified employing the CDK9/CycT1 TR-FRET assay as described in the following paragraphs:
Recombinant full-length His-tagged human CDK9 and CycT1, expressed in insect cells and purified by Ni-NTA affinity chromatography, were purchased from Invitrogen (Cat. No PV4131). As substrate for the kinase reaction biotinylated peptide biotin-Ttds-YISPLKSPYKISEG (C-terminus in amid form) was used which can be purchased e.g. from the company JERINI Peptide Technologies (Berlin, Germany).
(§1) For the assay 50 nl of a 100 fold concentrated solution of the test compound in DMSO was pipetted into a black low volume 384 well microtiter plate (Greiner Bio-One, Frickenhausen, Germany), 2 μl of a solution of CDK9/CycT1 in aqueous assay buffer [50 mM Tris/HCl pH 8.0, 10 mM MgCl2, 1.0 mM dithiothreitol, 0.1 mM sodium ortho-vanadate, 0.01% (v/v) Nonidet-P40 (Sigma)] were added and the mixture was incubated for 15 min at 22° C. to allow pre-binding of the test compounds to the enzyme before the start of the kinase reaction. […] The concentration of CDK9/CycT1 was adjusted depending of the activity of the enzyme lot and was chosen appropriate to have the assay in the linear range, typical concentrations were in the range of 1 μg/mL. The reaction was stopped by the addition of 5 μl of a solution of TR-FRET detection reagents (0.2 μM streptavidine-XL665 [Cisbio Bioassays, Codolet, France] and 1 nM anti-RB(pSer807/pSer811)-antibody from BD Pharmingen [#558389] and 1.2 nM LANCE EU-W1024 labeled anti-mouse IgG antibody [Perkin-Elmer, product no. AD0077]) in an aqueous EDTA-solution (100 mM EDTA, 0.2% (w/v) bovine serum albumin in 100 mM HEPES pH 7.5).
(§2) The resulting mixture was incubated 1 h at 22° C. to allow the formation of complex between the phosphorylated biotinylated peptide and the detection reagents. Subsequently the amount of phosphorylated substrate was evaluated by measurement of the resonance energy transfer from the Eu-chelate to the streptavidine-XL. Therefore, the fluorescence emissions at 620 nm and 665 nm after excitation at 350 nm was measured in a HTRF reader, e.g. a Rubystar (BMG Labtechnologies, Offenburg, Germany) or a Viewlux (Perkin-Elmer). The ratio of the emissions at 665 nm and at […] was taken as the measure for the amount of phosphorylated substrate. The data were normalised (enzyme reaction without inhibitor=0% inhibition, all other assay components but no enzym=100% inhibition).

CDK2/CycE = target: T2, CDK2/CycE (Homo sapiens, UniProt P24941); assay: CDK2/CycE kinase assay (TR-FRET, Method 2a); assay type: biochemical; conditions: 10 μM ATP
T2 construct: GST; purchased ProQinase GmbH (Freiburg, Germany); host or cells: insect cells (Sf9)
Source text: 2a. CDK2/CycE Kinase Assay:
CDK2/CycE-inhibitory activity of compounds of the present invention was quantified employing the CDK2/CycE TR-FRET assay as described in the following paragraphs:
Recombinant fusion proteins of GST and human CDK2 and of GST and human CycE, expressed in insect cells (Sf9) and purified by Glutathion-Sepharose affinity chromatography, were purchased from ProQinase GmbH (Freiburg, Germany). As substrate for the kinase reaction biotinylated peptide biotin-Ttds-YISPLKSPYKISEG (C-terminus in amid form) was used which can be purchased e.g. from the company JERINI Peptide Technologies (Berlin, Germany).
as §1, with “CDK2/CycE” for “CDK9/CycT1”, “130 ng/mL.” for “1 μg/mL.”
as §2, with “TR-FRET” for “HTRF”

MOLM-13 cells = assay: Proliferation assay, Cell Titre-Glo viability (Method 3); assay type: cell-based; conditions: Homo sapiens; MOLM-13, 72-hour exposure; read-out: Inhibition of MOLM-13 cell proliferation IC50
Experimental: A2780 human ovarian carcinoma cells (ECACC #93112519) and non-adherent MOLM-13 human acute myeloid leukemia cells (DSMZ ACC 554) were seeded at a density of 3,000 cell/well (A2780) or 5,000 cells/well (MOLM-13) in a 96-well multititer plate in 150 μL of growth medium supplemented 10% fetal calf serum. After 24 hours, cell viability of one plate (zero-point plate) was determined with the Cell Titre-Glo Luminescent Cell Viability Assay (Promega), while the medium of the other plates was supplemented with the test substances in various concentrations (0 μM, as well as in the range of 0.0001-10 μM; the final concentration of the solvent dimethyl sulfoxide was adjusted to 0.1%) using a Hewlett-Packard HP D300 Digital Dispenser. Cell viability was assessed after 72-hour exposure with the Cell
Titre-Glo Luminescent Cell Viability Assay (Promega). IC50 values (inhibitory concentration at 50% of maximal effect) were determined by means of a 4 parameter fit on measurement data which were normalized to vehicle (DMSO) treated cells (=100%) and measurement readings taken immediately before compound exposure (=0%).

T1 sequence (P50750 whole entry): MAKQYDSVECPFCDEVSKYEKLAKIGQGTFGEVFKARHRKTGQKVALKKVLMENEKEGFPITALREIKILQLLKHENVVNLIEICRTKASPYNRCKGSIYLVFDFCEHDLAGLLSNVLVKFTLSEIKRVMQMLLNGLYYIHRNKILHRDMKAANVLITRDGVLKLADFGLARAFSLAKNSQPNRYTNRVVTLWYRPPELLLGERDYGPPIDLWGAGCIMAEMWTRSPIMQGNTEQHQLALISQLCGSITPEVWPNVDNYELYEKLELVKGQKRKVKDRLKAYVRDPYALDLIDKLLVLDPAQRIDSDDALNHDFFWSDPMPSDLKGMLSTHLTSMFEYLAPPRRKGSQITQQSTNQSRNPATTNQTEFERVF
T1 sequence (O60563 whole entry partner): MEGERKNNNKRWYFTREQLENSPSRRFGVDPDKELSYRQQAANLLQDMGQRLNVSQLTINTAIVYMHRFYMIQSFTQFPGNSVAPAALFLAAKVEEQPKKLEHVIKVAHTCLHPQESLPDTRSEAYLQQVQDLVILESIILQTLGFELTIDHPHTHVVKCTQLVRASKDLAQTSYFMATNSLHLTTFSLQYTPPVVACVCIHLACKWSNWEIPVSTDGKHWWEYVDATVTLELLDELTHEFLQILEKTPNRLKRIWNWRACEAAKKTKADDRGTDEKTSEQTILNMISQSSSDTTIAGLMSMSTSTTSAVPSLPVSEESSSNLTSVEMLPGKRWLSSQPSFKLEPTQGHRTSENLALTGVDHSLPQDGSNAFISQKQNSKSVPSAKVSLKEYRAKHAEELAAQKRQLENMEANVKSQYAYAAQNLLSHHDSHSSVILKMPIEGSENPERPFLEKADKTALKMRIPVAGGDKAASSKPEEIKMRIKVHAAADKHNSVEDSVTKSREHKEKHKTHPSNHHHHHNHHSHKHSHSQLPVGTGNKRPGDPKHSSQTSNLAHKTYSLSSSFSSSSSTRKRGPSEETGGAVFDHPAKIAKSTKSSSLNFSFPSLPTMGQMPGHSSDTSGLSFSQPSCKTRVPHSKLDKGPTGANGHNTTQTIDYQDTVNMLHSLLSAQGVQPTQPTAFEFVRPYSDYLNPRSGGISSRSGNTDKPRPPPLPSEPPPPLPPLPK

SMILES	pIC50 (CDK9/CycT1)	Selectivity CDK9 over CDK2: IC50 (CDK2)/IC50 (CDK9) (CDK9/CycT1)	pIC50 (CDK2/CycE)	pIC50 (MOLM-13 cells)
CS(=N)(=O)Cc1cc2nc(c1)Nc1cc(c(F)cn1)-c1ccc(F)cc1OCCCN2 (racemic) [Example 8, (rac)-15,19-difluoro-8-[(S-methylsulfonimidoyl)methyl]-2,3,4,5-tetrahydro-11H-10,6-(azeno)-16,12-(metheno)-1,5,11,13-benzoxatriazacyclooctadecine]	8.57	3.4	8.04	8.66
CN1CCCCOc2cc(F)ccc2-c2cc(ncc2F)Nc2cc(CS(C)(=N)=O)cc1n2 (racemic) [Example 11, (rac)-16,20-difluoro-6-methyl-9-[(S-methylsulfonimidoyl)methyl]-3,4,5,6-tetrahydro-2H-7,11-(azeno)-17,13-(metheno)-1,6,12,14-benzoxatriazacyclononadecine]	8.29	6.7	7.47	8.09
C[S+]([O-])Cc1cc2nc(c1)OCCCCc1cc(F)ccc1-c1cc(ncc1F)N2 (racemic) [Example 5, (rac)-2,18-Difluoro-9-[(methylsulfinyl)methyl]-13,14,15,16-tetrahydro-6H-7,11-(azeno)-5,1-(metheno)-12,4,6-benzoxadiazacyclooctadecine]	8.21	44.4	6.56	7.62
CC(C)(C)OC(=O)N=S(C)(=O)Cc1cc2cc(c1)OCCCNc1cc(F)ccc1-c1nc(ncc1F)N2 (racemic) [Example 13, (rac)-tert-butyl[{[15,19-difluoro-1,2,3,4-tetrahydro-16,12-(azeno)-6,10-(metheno)-5,1,11,13-benzoxatriazacyclooctadecin-8(11H)-yl]methyl}(methyl)oxido-λ^6-sulfanylidene]carbamate]	8.19	–	–	7.85
CSCc1cc2nc(c1)OCCCCc1cc(F)ccc1-c1cc(ncc1F)N2 [Example 4, 2,18-Difluoro-9-[(methylsulfanyl)methyl]-13,14,15,16-tetrahydro-6H-7,11-(azeno)-5,1-(metheno)-12,4,6-benzoxadiazacyclooctadecine]	7.44	>556	< 4.70	6.01
CC(C)(C)OC(=O)N=S(C)(=O)Cc1cc2cc(c1)OCCCCSc1cc(F)ccc1-c1nc(ncc1F)N2 (racemic) [Example 21, (rac)-tert-butyl[{[16,20-difluoro-2,3,4,5-tetrahydro-12H-17,13-(azeno)-11,7-(metheno)-6,1,12,14-benzoxathiadiazacyclononadecin-9-yl]methyl}(methyl)oxido-λ^6-sulfanylidene]carbamate]	–	–	–	6.79
CS(=O)(Cc1cc2nc(c1)Nc1cc(c(F)cn1)-c1ccc(F)cc1OCCCCN2)=NC(=O)OCc1ccccc1 (racemic) [Example 2, (rac)-Benzyl[{[16,20-difluoro-3,4,5,6-tetrahydro-2H,12H-11,7-(azeno)-13,17-(metheno)-1,6,12,14-benzoxatriazacyclononadecin-9-yl]methyl}(methyl)oxido-λ^6-sulfanylidene]carbamate]	7.83	47.5	6.16	8.52
CC(C)(C)OC(=O)N=S(C)(=O)Cc1cc2cc(c1)Nc1ncc(F)c(n1)-c1ccc(F)cc1OCCCCN2 (racemic) [Example 24, (rac)-tert-butyl[{[16,20-difluoro-3,4,5,6-tetrahydro-2H,12H-13,17-(azeno)-11,7-(metheno)-1,6,12,14-benzoxatriazacyclononadecin-9-yl]methyl}(methyl)oxido-λ^6-sulfanylidene]carbamate]	7.04	28.2	5.59	–
CS(=N)(=O)Cc1cc2nc(c1)Nc1cc(c(F)cn1)-c1ccc(F)cc1OCCCCN2 (racemic) [Example 3, (rac)-16,20-Difluoro-9-[(S-methylsulfonimidoyl)methyl]-3,4,5,6-tetrahydro-2H,12H-11,7-(azeno)-13,17-(metheno)-1,6,12,14-benzoxatriazacyclononadecine]	8.08	5.3	7.36	8.47
CS(=N)(=O)Cc1cc2cc(c1)OCCCCSc1cc(F)ccc1-c1nc(ncc1F)N2 (racemic) [Example 22, (rac)-16,20-difluoro-9-[(S-methylsulfonimidoyl)methyl]-2,3,4,5-tetrahydro-12H-17,13-(azeno)-11,7-(metheno)-6,1,12,14-benzoxathiadiazacyclononadecine]	–	–	–	7.64
CSCc1cc2nc(c1)OCCCCCc1cc(F)ccc1-c1cc(ncc1F)N2 [Example 18, 2,19-difluoro-9-[(methylsulfanyl)methyl]-14,15,16,17-tetrahydro-6H,13H-7,11-(azeno)-5,1-(metheno)-12,4,6-benzoxadiazacyclononadecine]	7.00	25.9	5.59	–
CS(=N)(=O)Cc1cc2cc(c1)OCCCNc1cc(F)ccc1-c1nc(ncc1F)N2 (racemic) [Example 14, rac-15,19-difluoro-8-[(S-methylsulfonimidoyl)methyl]-1,2,3,4-tetrahydro-16,12-(azeno)-6,10-(metheno)-5,1,11,13-benzoxatriazacyclooctadecine]	8.49	–	–	8.51
